Paper PMC11724075, “Small-molecule-induced ERBB4 activation to treat heart failure” (Nature Communications, 2025)
Values joined by “and” are separate entries in the source; they are usually repeats but may differ in a detail not shown here. Equal entries are not always repeated.

What was measured:
iAMs = experiment: H2O2-induced cell death assay in iAMs (Toxilight), also with LY294002; settings: H2O2 100 µM; for total cell death of iAMs (percentage of total dead cells): NA-1, 4 h, single replicates
Description: Subsequently, H2O2 (100 µM; Merck, H1009) was added and the cells were incubated for 4 h at 37 °C. All wells contained DMSO at a final concentration of 0.9%. […] After incubation at RT for 5 min, luminescence was measured using the Luminoskan Ascent.

[1] = tested on: mouse model of AngII-induced myocardial fibrosis; experiment: AngII-induced myocardial fibrosis mouse model, 4 weeks, echocardiography, wild-type mice; type: in vivo
Description: (§1) Four weeks after implantation, cardiac ultrasound was performed, mice were euthanized, and hearts were collected. A similar set-up was used for the 1-week study (Alzet, model 1007D) in male mice (n = 9-10 mice in every group).
Echocardiography was performed using the Vevo F2-LAZRX (FUJIFILM VisualSonics) and UHF57x probe. Mice were anesthetized with 1.5% isoflurane (Alvira, BE-V512222). Parasternal long-axis B-mode images and M-mode images were obtained and analyzed using VevoLAB software (FUJIFILM VisualSonics, Version 5.7.1). For the AngII experiments, measurements were obtained through analysis of the short-axis M-mode. For the MI experiments, measurements were obtained through analysis of the parasternal long-axis B-mode, of which the area and end-volume of the left ventricular cavity in diastole and systole were determined by tracing the endocardial border. Acquisitions, measurements and analyses were performed blinded.
Supplementary Table 2. Echocardiographic parameters. Echocardiographic parameters obtained through the analysis of the M-mode short-axis views. (a) Male and (b) female wild-type mice treated […]
mice in EF-1 group). (c) Male wild-type mice treated with AngII and NA-1 (n=5 male mice in Ctrl and AngII/Veh group, n=4 male mice in AngII/NA -1 group). (d) Comparison between wild-type and Erbb4-null mice (n=10 male and female wild -type mice and n=6 male and female Erbb4-null mice). (e) Male […]
Echocardiographic parameters obtained through left ventricular trace analysis of the parasternal long-axis obtained in B-mode in female wild-type mice that underwent a sham or MI operation: mice with […]
in MI/EF-1 group). (g) Echocardiographic parameters obtained through left ventricular trace analysis of the parasternal long-axis obtained in B-mode in male wild-type mice that underwent a sham or MI […]
male mice in MI/Veh group for T2 and T4). Echocardiographic parameters were measured weekly (indicated by ‘T’). All data are presented as mean (value of individual mice) ± SD, two-tailed unpaired […]
1 groups. Source data are provided as a Source Data file. AngII, angiotensin II; ANOVA, analysis of variance; Ctrl, control; DOX, doxorubicin; EF, ejection fraction; ERBB4, erythroblastic leukemia viral oncogene homolog 4; FS, fractional shortening; IVSd, interventricular septum thickness in diastole; IVSs, interventricular septum thickness in systole; LVIDd, left ventricular internal diameter in diastole; LVIDs, left ventricular internal diameter in systole; LVPWd, left ventricular posterior wall thickness in diastole; LVPWs, left ventricular posterior wall thickness in systole; MI, myocardial infarction; NA, non-activating pharmacophore-containing compound; SD, standard variation; Veh, vehicle.

[2] = tested on: mouse model of AngII-induced myocardial fibrosis; experiment: AngII-induced myocardial fibrosis mouse model, 4 weeks, Masson's trichrome fibrosis, wild type mice; type: in vivo; design: key to Total fibrosis male in vivo WT with EF-1 / Total fibrosis female in vivo WT with EF-1 / Total fibrosis male in vivo WT with NA-1: fibrotic (blue-stained) area / total area
Description: as §1
Hearts were fixed in 4% PFA, paraffin-embedded, and cut into 5-µm sections. Images were acquired with an Olympus BX43 microscope (Olympus Stream Motion Software) or a CELENA® S Digital Imaging System and analyzed with ImageJ 2.14.0 software. Collagen distribution was visualized by Masson’s trichrome staining. Cardiac total fibrosis was expressed as the ratio of positively stained fibrotic area (blue) to the total area and perivascular fibrosis as the ratio of fibrotic area to vascular lumen area. Scar size was determined by measuring the scar length over the […]. Hypertrophy and vascularisation were visualized via an isolectin-B4/WGA/DAPI staining. Quantification was performed by a person blinded to the treatment protocol.

[3] = tested on: Akt phosphorylation (pAkt/Akt); experiment: Western blot pAkt/Akt in iAMs; type: cell-based, rat; settings: for pAkt/Akt, relative to vehicle of the same time point: NRG1 10 nM, iAMs, single replicates
Description: Hearts of the aforementioned transgenic mice were removed immediately after the animals had been killed. Cells and heart tissue were collected in RIPA lysis buffer (Thermo Fisher Scientific, 89900) supplemented with protease inhibitors (Merck, 11836153001) and phosphatase inhibitors (Merck, 4906845001) and the lysates were centrifuged at 14,000 × g for 10 min. The supernatants were collected, supplemented with sample buffer, and incubated at 95 °C for 5 min. Protein quantification was done with Pierce^TM BCA Protein Assay Kits (Thermo Fisher, 23227) according to the manufacturer’s instructions. Equal protein amounts of clarified lysates (20 µg) were subsequently separated by sodium dodecyl sulfate (SDS) polyacrylamide gel electrophoresis (165 V, 400 mA, 60 min) and transferred onto polyvinylidene fluoride membranes by electroblotting (100 V, 400 mA, 90 min). Next, the membranes were incubated for 1 h with Li-Cor blocking buffer (Li-Cor, 927-60001) at RT in Tris-buffered saline (TBS), supplemented with 0.1% Tween (BIO-RAD, 1706531). Next, primary antibodies were added (see below and Table 1a) in Li-Cor blocking buffer supplemented with 0.1% Tween, and the membranes were incubated overnight at 4 °C on a shaker. Following washing with TBS-0.1% Tween, the membranes were incubated for 1 h at RT with corresponding IRDye-conjugated secondary antibodies (See below and Table 1b) in Li-Cor blocking buffer supplemented with […] and 0.1% Tween. The membrane was visualized with the Odessey imaging system.

[4] = Male wild-type mice, AngII/NA-1
[5] = male wild-type mice, AngII + compound 2 mg/kg/day, 4 weeks, mean ± SD

Compound: Cc1sc2nc(SC(C)C(=O)NCc3ccc4c(c3)OCO4)n(-c3ccccc3)c(=O)c2c1C (centres unmarked) [NA-1]
- effect on cardiomyocyte survival (in words) (iAMs): did not have a significant effect on cardiomyocyte survival
- total cell death of iAMs (percentage of total dead cells) (iAMs; 1e-6 M): 60.0225 and 62.2886 and 68.0221
- total cell death of iAMs (percentage of total dead cells) (iAMs; 4e-6 M): 64.78 and 60.57 and 53.32 and 58.95
- total cell death of iAMs (percentage of total dead cells) (iAMs; 8e-6 M): 63.16 and 63.84 and 49.27 and 56.61
- total cell death of iAMs (percentage of total dead cells) (iAMs; 1.6e-5 M): 61.57 and 64.49 and 50.09 and 59.17
- total cell death of iAMs (percentage of total dead cells) (iAMs; 3.2e-5 M): 63.24 and 58.6 and 49.06 and 56.03
- FS [1, 4]: 18.1 ± 5.1%
- IVSd [1, 4]: 1.0 ± 0.2 mm
- IVSs [1, 4]: 1.4 ± 0.2 mm
- LVIDd [1, 4]: 4.3 ± 0.7 mm
- LVIDs [1, 4]: 3.5 ± 0.7 mm
- LVPWd [1, 4]: 0.9 ± 0.1 mm
- LVPWs [1, 4]: 1.1 ± 0.3 mm
- FS [1, 5]: 18.1 ± 5.1%
- IVSd [1, 5]: 1.0 ± 0.2 mm
- IVSs [1, 5]: 1.4 ± 0.2 mm
- LVIDd [1, 5]: 4.3 ± 0.7 mm
- LVIDs [1, 5]: 3.5 ± 0.7 mm
- LVPWd [1, 5]: 0.9 ± 0.1 mm
- LVPWs [1, 5]: 1.1 ± 0.3 mm
- Perivascular fibrosis male in vivo WT with NA-1 ([2]; AngII/NA-1, individual animals): 1.271 and 2.289 and 2.187 and 2.2768
- Total fibrosis male in vivo WT with NA-1 ([2]; AngII/NA-1, individual animals): 7.18 and 11.9815 and 8.108 and 8.95
- effect on AngII-induced interstitial and perivascular fibrosis (in words) ([2]; male wild type mice, NA-1 2 mg/kg/day): did not significantly prevent interstitial or perivascular AngII-induced fibrosis

Compound: neuregulin-1 [NRG1]
- phosphorylation of Akt in iAMs (in words) ([3]; NRG1 10 nM or EF-1 32 µM): significant increase in phosphorylated Akt levels after already 15 minutes
- pAkt/Akt, relative to vehicle of the same time point ([3]; 0 minutes): 1.052 and 0.8332 and 0.8199
- pAkt/Akt, relative to vehicle of the same time point ([3]; 15 minutes): 5.096 and 6.809 and 6.931
- pAkt/Akt, relative to vehicle of the same time point ([3]; 60 minutes): 4.363 and 4.094 and 3.405
- pAkt/Akt, relative to vehicle of the same time point ([3]; 120 minutes): 2.7652 and 3.7648 and 2.637
- pAkt/Akt, relative to vehicle of the same time point ([3]; 240 minutes): 2.317 and 2.06
